In the assay the target is T1, human T-type channel alpha-1H (CaV 3.2) (Homo sapiens, UniProt O95180).
T1 construct: expressed in transfected cells; host or cells: HEK 293
Description: Ca2+ Influx Assay (cell-based fluorescent, FDSS). The following applies: HEK 293 cells expressing human CaV 3.2. The protocol: Inhibition of T-type calcium channel activity was determined by cell-based flu-orescent Ca^2+ influx assay, in which potassium ionophore was added to decrease resting membrane potential and extra-cellular high-K^+ stimulation was used to modulate the membrane potential of the cell. The changes in fluorescent signal were monitored by the cell imaging technology by Hamamatsu Photonics's Functional Drug Screening System (FDSS).
HEK 293 cells expressing the human T-type channel alpha-1H (CaV 3.2) were maintained in DMEM supplemented with 10% heat-inactivated FBS, 100 units/ml Penicillin, 100 microg/ml Streptomycin, 150 microg/ml Zeocin, 300 microg/ml Geneticin. The cells were grown in a 5% CO2 humidified incubator at 37° C.
• 1. Cells were harvested and seeded in a poly-D-lysine coated black-sided clear bottom 384-well plate at density of 10,000 cells/well at 24 hours prior to assay. • 2. Incubate at 37° C. in 5% CO2. Day Two: • 1. Wash each well with assay buffer (see below) and leave 20 RI using plate washer, ELx-405 Select CW (BIO-TEK). • 2. Add 20 μL of assay buffer containing 6 μM Fluo-4-AM (Molecular Probes) and 0.005% Pluronic F-127 to each well. • 3. Incubate the plate at 37° C. for 1 hour. • 4. Wash each well assay buffer (see below) and leave 20 μl using plate washer, ELx-405 Select CW (BIO-TEK). • 5. Add 10 μl of compound solution into each well by FDSS6000 and leave the plate for 4.5 min, and then add 10 μl of potassium ionophore solution. • 6. Add 20 μl of high-K^+ depolarizing solution (see below) and monitor the change of fluorescent signal.
The IC50 values for compounds of the present invention were determined from 7-point dose-response studies. Curves were generated using the average of duplicate wells for each data point. Finally, the IC50 values are calculated with the best-fit dose curve determined by XLfit.

As usually defined, the IC50 is the concentration at which inhibition is half-maximal. A low value points to inhibition by little substance.

Where only a bound is given, the exact number is not on record here.

T1 sequence (O95180 whole entry): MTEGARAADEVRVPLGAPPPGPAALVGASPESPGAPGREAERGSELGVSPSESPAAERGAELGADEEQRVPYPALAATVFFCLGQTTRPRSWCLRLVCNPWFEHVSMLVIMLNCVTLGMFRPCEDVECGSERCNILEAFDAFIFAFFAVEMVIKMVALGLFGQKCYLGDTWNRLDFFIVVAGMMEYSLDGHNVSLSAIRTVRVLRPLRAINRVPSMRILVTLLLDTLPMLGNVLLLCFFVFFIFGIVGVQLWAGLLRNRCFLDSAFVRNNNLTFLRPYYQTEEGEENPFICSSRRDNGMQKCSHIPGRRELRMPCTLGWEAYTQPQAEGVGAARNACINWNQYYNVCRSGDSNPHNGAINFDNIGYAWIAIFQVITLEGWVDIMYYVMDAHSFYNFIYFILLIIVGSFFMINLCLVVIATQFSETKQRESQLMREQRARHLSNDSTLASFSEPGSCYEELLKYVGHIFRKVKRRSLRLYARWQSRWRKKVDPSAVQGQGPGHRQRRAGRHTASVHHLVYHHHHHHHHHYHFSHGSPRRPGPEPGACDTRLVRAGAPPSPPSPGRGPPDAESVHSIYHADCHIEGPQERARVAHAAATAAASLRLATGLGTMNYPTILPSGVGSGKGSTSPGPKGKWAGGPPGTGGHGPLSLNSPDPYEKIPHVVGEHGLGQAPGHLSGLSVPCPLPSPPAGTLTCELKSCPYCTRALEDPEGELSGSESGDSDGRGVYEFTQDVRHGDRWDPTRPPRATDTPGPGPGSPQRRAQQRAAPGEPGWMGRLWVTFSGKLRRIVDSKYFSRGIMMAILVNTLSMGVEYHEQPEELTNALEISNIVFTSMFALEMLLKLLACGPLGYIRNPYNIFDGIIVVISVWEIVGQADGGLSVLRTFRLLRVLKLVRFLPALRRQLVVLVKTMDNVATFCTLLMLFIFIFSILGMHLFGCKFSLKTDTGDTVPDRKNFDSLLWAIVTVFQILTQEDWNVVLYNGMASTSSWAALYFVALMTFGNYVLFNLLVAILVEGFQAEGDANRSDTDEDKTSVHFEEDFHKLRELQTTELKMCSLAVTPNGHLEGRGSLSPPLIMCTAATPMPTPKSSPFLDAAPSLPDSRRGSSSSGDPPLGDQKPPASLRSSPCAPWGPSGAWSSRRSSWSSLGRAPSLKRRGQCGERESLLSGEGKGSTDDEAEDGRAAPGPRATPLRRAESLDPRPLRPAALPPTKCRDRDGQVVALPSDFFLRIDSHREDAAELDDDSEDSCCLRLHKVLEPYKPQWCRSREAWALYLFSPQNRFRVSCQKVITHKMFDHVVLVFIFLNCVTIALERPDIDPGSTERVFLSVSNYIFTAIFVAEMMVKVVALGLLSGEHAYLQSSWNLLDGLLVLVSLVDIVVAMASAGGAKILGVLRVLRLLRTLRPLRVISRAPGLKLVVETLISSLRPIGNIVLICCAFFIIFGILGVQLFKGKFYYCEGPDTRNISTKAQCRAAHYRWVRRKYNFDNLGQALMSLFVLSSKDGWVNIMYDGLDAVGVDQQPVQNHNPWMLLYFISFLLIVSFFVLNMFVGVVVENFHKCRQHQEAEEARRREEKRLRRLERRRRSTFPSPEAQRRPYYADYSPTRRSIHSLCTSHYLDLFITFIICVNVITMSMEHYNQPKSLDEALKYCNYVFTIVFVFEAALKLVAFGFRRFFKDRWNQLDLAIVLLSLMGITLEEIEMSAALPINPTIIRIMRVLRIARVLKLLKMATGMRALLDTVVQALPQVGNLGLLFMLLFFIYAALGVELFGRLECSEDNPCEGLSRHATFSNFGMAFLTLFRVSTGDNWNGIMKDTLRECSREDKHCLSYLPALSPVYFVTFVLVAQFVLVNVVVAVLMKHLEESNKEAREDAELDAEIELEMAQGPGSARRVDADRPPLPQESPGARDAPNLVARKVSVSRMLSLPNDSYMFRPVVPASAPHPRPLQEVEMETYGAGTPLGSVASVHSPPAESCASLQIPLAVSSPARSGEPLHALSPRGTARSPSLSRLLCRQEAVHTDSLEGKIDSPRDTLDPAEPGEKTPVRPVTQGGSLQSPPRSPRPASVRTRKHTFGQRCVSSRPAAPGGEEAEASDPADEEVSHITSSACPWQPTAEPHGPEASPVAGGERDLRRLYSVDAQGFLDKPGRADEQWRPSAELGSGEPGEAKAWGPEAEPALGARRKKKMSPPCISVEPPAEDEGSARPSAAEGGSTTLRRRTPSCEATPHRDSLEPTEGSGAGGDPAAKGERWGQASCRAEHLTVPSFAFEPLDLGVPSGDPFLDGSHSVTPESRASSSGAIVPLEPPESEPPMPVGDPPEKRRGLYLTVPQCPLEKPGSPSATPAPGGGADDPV

Regarding `C[C@@H](NC(=O)C1CC1Cn1ccc2ccccc21)c1ccc(OCC(F)(F)F)cn1` (stereo in doubt) [Example 182, trans-2-((1H-indol-1-yl)methyl)-N-((R)-1-(5-(2,2,2-trifluoroethoxy)pyridin-2-yl)ethyl)cyclopropanecarboxamide], the IC50 was at most 300 nM.
In turn, `C[C@@H](NC(=O)[C@@H]1C[C@H]1c1ccc2ccccc2n1)c1ccc(OCC(F)(F)F)cn1` (relative stereo) [Example 325, (1R*,2R*)-2-(quinolin-2-yl)-N-((R)-1-(5-(2,2,2-trifluoroethoxy)pyridin-2-yl)ethyl)cyclopropanecarboxamide] gave an IC50 of at most 300 nM.
For the compound `C[C@@H](NC(=O)[C@H]1C[C@@H]1c1ccc(OCc2ccccn2)cc1)c1ccc(OCC(F)(F)F)cn1` (relative stereo) [Example 305, (1S*,2S*)-2-(4-(pyridin-2-ylmethoxy)phenyl)-N-((R)-1-(5-(2,2,2-trifluoroethoxy)pyridin-2-yl)ethyl)cyclopropanecarboxamide], the IC50 is at most 300 nM.
In the case of `C[C@@H](NC(=O)C1CC1c1ccc2ccn(C)c2c1)c1ccc(OCC(F)(F)F)nc1` (stereo in doubt) [Example 208, trans-2-(1-methyl-1H-indol-6-yl)-N-((R)-1-(6-(2,2,2-trifluoroethoxy)pyridin-3-yl)ethyl)cyclopropanecarboxamide] it was at most 300 nM.
In the case of `C[C@@H](NC(=O)[C@@H]1C[C@H]1c1cccc2cc[nH]c12)c1cnc(OCC(F)(F)F)cn1` (relative stereo) [Example 323, (1R*,2R*)-2-(1H-indol-7-yl)-N-((R)-1-(5-(2,2,2-trifluoroethoxy)pyrazin-2-yl)ethyl)cyclopropanecarboxamide] it was at most 300 nM; in that of `C[C@@H](NC(=O)C1CC1c1ccc2ncccc2c1)c1ccc(OCC(F)(F)F)nc1` (stereo in doubt) [Example 207, trans-2-(quinolin-6-yl)-N-((R)-1-(6-(2,2,2-trifluoroethoxy)pyridin-3-yl)ethyl)cyclopropanecarboxamide], at most 300 nM.
In the case of `C[C@@H](NC(=O)C1CC1c1cccc2cc[nH]c12)c1ccc(OCC(F)(F)F)nc1` (stereo in doubt) [Example 212, trans-2-(1H-indol-7-yl)-N-((R)-1-(6-(2,2,2-trifluoroethoxy)pyridin-3-yl)ethyl)cyclopropanecarboxamide] it was at most 300 nM.
Take `C[C@@H](NC(=O)CCCc1c[nH]c2ccccc12)c1ccc(OCC(F)(F)F)cn1` [Example 57, (R)-4-(1H-indol-3-yl)-N-(1-(5-(2,2,2-trifluoroethoxy)pyridin-2-yl)ethyl)butanamide]: the concentration for half-maximal inhibition (IC50) was at most 300 nM.
For `COc1ccc([C@H]2C[C@@H]2C(=O)N[C@H](C)c2ccc(OCC3CC3)cn2)c(F)c1` (relative stereo) [Example 263, (1S*,2S*)-N-((R)-1-(5-(cyclopropylmethoxy)pyridin-2-yl)ethyl)-2-(2-fluoro-4-methoxy-phenyl)cyclopropanecarboxamide], the half-maximal inhibitory concentration (IC50) was at most 300 nM.
In turn, `COc1ccc([C@H]2C[C@@H]2C(=O)N[C@H](C)c2cnc(OCC(F)(F)F)cn2)cc1C` (relative stereo) [Example 309, (1S*,2S*)-2-(4-methoxy-3-methylphenyl)-N-((R)-1-(5-(2,2,2-trifluomethoxy)pyrazin-2-yl)ethyl)cyclopropanecarboxamide] yielded an IC50 of at most 300 nM.
`C[C@@H](NC(=O)[C@@H]1C[C@H]1c1c(F)cc(F)cc1F)c1ccc(OCC2CC2)cn1` (relative stereo) [Example 266] gave an IC50 of at most 300 nM.
For the compound `COc1ccc([C@H]2C[C@@H]2C(=O)N[C@H](C)c2ccc(OCC3CC3)cn2)cc1C` (relative stereo) [Example 307, (1S*,2S*)-N-((R)-1-(5-(cyclopropyl-methoxy)pyridin-2-yl)ethyl)-2-(4-methoxy-3-methylphenyl) cyclopropanecarboxamide], the IC50 was at most 300 nM.
Consider `C[C@@H](NC(=O)C1CC1c1cc2cc(F)ccc2[nH]1)c1ccc(OCC(F)(F)F)cn1` (stereo in doubt) [Example 125, trans-2-(5-fluoro-1H-indol-2-yl)-N-((R)-1-(5-(2,2,2-trifluoroethoxy)pyridin-2-yl)ethyl)cyclopropanecarboxamide], for which the IC50 is at most 300 nM.
For the compound `Cc1cc(OCC(F)(F)F)cnc1[C@@H](C)NC(=O)CCc1c[nH]c2ccccc12` [Example 104, (R)-3-(1H-indol-3-yl)-N-(1-(3-methyl-5-(2,2,2-trifluoroethoxy)pyridin-2-yl)ethyl)propanamide], the half-inhibitory concentration (IC50) is at most 300 nM.
On to `C[C@@H](NC(=O)C1CC1c1nc2ccccc2n1C)c1ccc(OCC(F)(F)F)nc1` (stereo in doubt) [Example 245, trans-2-(1-methyl-1H-benzo[d]imidazol-2-yl)-N-((R)-1-(6-(2,2,2-trifluoroethoxy)pyridin-3-yl)ethyl)cyclopropanecarboxamide], for which the IC50 is at most 300 nM.
For the compound `C[C@@H](NC(=O)[C@H]1C[C@@H]1c1ccc2cc[nH]c2c1)c1ccc(OCC(F)(F)F)cn1` (relative stereo) [Example 203, (1S*,2S*)-2-(1H-indol-6-yl)-N-((R)-1-(5-(2,2,2-trifluoroethoxy)pyridin-2-yl)ethyl)cyclopropanecarboxamide], the IC50 is at most 300 nM.
On to `C[C@@H](NC(=O)C1CC1c1ccc2ccccc2n1)c1ccc(OCC(F)(F)F)nc1` (stereo in doubt) [Example 205, trans-2-(quinolin-2-yl)-N-((R)-1-(6-(2,2,2-trifluoroethoxy)pyridin-3-yl)ethyl)cyclopropanecarboxamide], for which the IC50 is at most 300 nM.
`C[C@@H](NC(=O)[C@H]1C[C@@H]1c1ccc(OCc2ccccc2)cc1)c1ccc(OCC(F)(F)F)cn1` (relative stereo) [Example 237, (1S*,2S*)-2-(4-(benzyloxy)phenyl)-N-((R)-1-(5-(2,2,2-trifluoroethoxy)pyridin-2-yl)ethyl)cyclopropanecarboxamide] displayed an IC50 of at most 300 nM.
On to `C[C@@H](NC(=O)[C@H]1C[C@@H]1c1cc2ccccc2[nH]1)c1cnc(OCC(F)(F)F)cn1` (relative stereo) [Example 225, (1S*,2S*)-2-(1H-indol-2-yl)-N-((R)-1-(5-(2,2,2-trifluoroethoxy)pyrazin-2-yl)ethyl)cyclopropanecarboxamide], for which the IC50 is at most 300 nM.
For the compound `COc1ccc([C@H]2C[C@@H]2C(=O)N[C@H](C)c2ccc(OCC(F)(F)F)cn2)c(F)c1` (relative stereo) [Example 248, (1S*,2S*)-2-(2-fluoro-4-methoxyphenyl)-N-((R)-1-(5-(2,2,2-trifluoroethoxy)pyridin-2-yl)ethyl)cyclopropanecarboxamide], the IC50 is at most 300 nM.
`C[C@@H](NC(=O)[C@H]1C[C@@H]1c1cc(F)ccc1F)c1ccc(OCC(F)(F)F)cn1` (relative stereo) [Example 327, (1S*,2S*)-2-(2,5-difluorophenyl)-N-((R)-1-(5-(2,2,2-trifluoroethoxy)pyridin-2-yl)ethyl)cyclopropanecarboxamide]: the IC50 is at most 300 nM.
Take `C[C@@H](NC(=O)C1CC1c1ccc2ccn(CC3(C)COC3)c2c1)c1cnc(OCC(F)(F)F)cn1` (stereo in doubt) [Example 190, trans-2-(1-((3-methyloxetan-3-yl)methyl)-1H-indol-6-yl)-N-((R)-1-(5-(2,2,2-trifluoro-ethoxy)pyrazin-2-yl)ethyl)cyclopropanecarboxamide]: the IC50 was at most 300 nM.
The value for `C[C@@H](NC(=O)[C@@H]1C[C@H]1c1c[nH]c2ccccc12)c1ccc(OCC(F)(F)F)cn1` (relative stereo) [Example 134, (1R*,2R*)-2-(1H-indol-3-yl)-N-((R)-1-(5-(2,2,2-trifluoroethoxy)pyridin-2-yl)ethyl)cyclopropanecarboxamide] was at most 300 nM.
`C[C@@H](NC(=O)C1CC1c1cc2cc(F)ccc2[nH]1)c1cnc(OCC(F)(F)F)cn1` (stereo in doubt) [Example 171, trans-2-(5-fluoro-1H-indol-2-yl)-N-((R)-1-(5-(2,2,2-trifluoroethoxy)pyrazin-2-yl)ethyl)cyclopropanecarboxamide] gave an IC50 of at most 300 nM.
In the case of `C[C@@H](NC(=O)[C@@H]1C[C@H]1c1cccc2cc[nH]c12)c1ccc(OCC(F)(F)F)cn1` (relative stereo) [Example 276, (1R*,2R*)-2-(1H-indol-7-yl)-N-((R)-1-(5-(2,2,2-trifluoroethoxy)pyridin-2-yl)ethyl)cyclopropanecarboxamide], the IC50 is at most 300 nM.
In the case of `COc1ccc([C@@H]2C[C@H]2C(=O)N[C@H](C)c2cnc(OCC(F)(F)F)cn2)cc1C` (relative stereo) [Example 310, (1R*,2R*)-2-(4-methoxy-3-methylphenyl)-N-((R)-1-(5-(2,2,2-trifluoroethoxy)pyrazin-2-yl)ethyl)cyclopropanecarboxamide] it was at most 300 nM.

Values taken from patent US9101616B2, “Aryl substituted carboxamide derivatives as calcium or sodium channel blockers” (RaQualia Pharma Inc., priority 2009, dated 2015).
